According to PMC4494927, “Discovery of a small molecule targeting SET-PP2A interaction to overcome BCR-ABLT315I mutation of chronic myeloid leukemia” (Oncotarget, 2015):
One block for each molecule: values may come before it.

Columns and labels:
BCR-ABL = test: Western blot of BCR-ABL expression in K562 cells; type: cell-based, human
Procedure: Protein samples (40 μg) were resolved on SDS-PAGE gels, transferred onto PVDF membranes (Millipore) and incubated overnight with primary antibodies to β-tubulin, BCR-ABL, p-BCR-ABL, SET, PP2Ac and p-PP2Ac. The membranes were incubated with horseradish peroxidase (HRP)-conjugated secondary antibody for 1 h, and the bands were visualized using an ECL detection kit following the manufacturer's instructions. For immunoprecipitation, cells were lysed in 20 mM Tris-HCl (pH 7.0), 150 mM NaCl, 1 mM EDTA, 1 mM MgCl and 0.5% NP-40 supplemented with a cocktail of protease and phosphatase inhibitors (Roche). Lysates (200 μg) were incubated with primary antibodies (1 μg) against SET or PP2Ac at 4 °C for 10 h, protein A/G plus agarose beads were then added for immunoprecipitation overnight at 4 °C. After wash, the immunoprecipitated proteins were separated by SDS-PAGE and analyzed by Western blotting.

K562 cells = test: Cytotoxicity assay (CellTiter-Glo); type: cell-based, human
Procedure: Twenty types of tumor cell lines were seeded at 4000 cells per well in 96-well plates. […] Cell viability was measured with the CellTiter-Glo Luminescent Cell Viability Assay (Promega) according to the manufacturer's instructions. Luminescence was measured using an EnVision Multilabel Plate Reader (Perkin-Elmer). The cytotoxicity of TGI1002 was expressed as the percentage of luminescence relative to that of untreated cells.

BaF3-p210^T315I cells = test: Survival study, intravenously injected tumor cells; type: in vivo, BALB/c mice; settings: vehicle 25.5 days
Procedure: In survival study, BaF3-p210^T315I cells were injected into the tail vein of BALB/c mice (100 μL of a 1 × 10^7 cells suspension in serum free medium). […] Moribund animals were sacrificed as per institutional and national guidelines. Survival data were analyzed by the Kaplan Meier method and compared using the log-rank test.

[1] = target: T1, recombinant human SET protein (Homo sapiens, UniProt Q01105); test: Microscale thermophoresis (MST) binding to NT647-labeled SET; settings: 15 μM NT647-labeled SET, PBS pH 8.0, 25 °C
T1 construct: Genes encoding the full length of human SET (GenBank No.: AAA60318.1) was synthesized; made in house; host or cells: E. coli (pET-21a)
Procedure: Thermophoresis analysis was performed during 30 s on a NanoTemper Monolith NT.115 instrument (20% LED, 40% MST power) at 25 °C.

PP2A = test: PP2Ac immunoprecipitation phosphatase assay in K562 cells; type: cell-based, human
Procedure: PP2A assay from whole cell lysates was carried out using commercial PP2Ac immunoprecipitation phosphatase assay kit (Millipore). Briefly, 200 μg protein lysates prepared as described above, 4 μg PP2Ac-specific antibody, and 40 μL protein A-agarose were added to TBS buffer (20 mM Tris-HCl, 150 mM NaCl, and 0.1% Tween 20) to a final volume of 500 μL and immunoprecipitation was carried out at 4 °C for 2 h. The immunoprecipitates were used in the phosphatase reaction following the manufacturer's protocol.

[2] = system: BaF3-p210^T315I tumor xenografts; test: In vivo anti-tumor efficacy, subcutaneous xenograft; set-up: species or system BALB/c mice; settings: TGI1002 30, 45, 60 mg/kg; imatinib, ponatinib 10 mg/kg; i.p. daily
Procedure: BABL/c male mice from SLRC Experimental Animal Center were bred under pathogen-free conditions and were used for experiments at 6-8 weeks of age. Animal experiments were performed according to institutional and national guidelines. BaF3-p210^T315I cells were implanted subcutaneously into the right flank of nude mice (200 μL of a 1 × 10^7cells suspension in serum free medium). When tumors became large enough for caliper measurement, tumor volumes were calculated as (length × width^2) × 0.5. […] At the end of the experiments, tumors were dissected and photographed, and wet weights of each tumor were measured.

[3] = target: T2, recombinant human SET protein in full length (human, UniProt Q01105-2 1-277, labeled with RED fluorescent dye NT-647-NHS); test: MST; serial dilutions of the peptide (up to 2 mM) mixed with 15 μM NT647-labeled SET protein, 10 min at room temperature, 20 mM PBS pH 8.0, 25 °C, Monolith NT.115 (20% LED, 40% MST power); settings: both partners purified
T2 construct: human SET, full length, gene synthesized after GenBank AAA60318.1 and subcloned into pET-21a; also called SET oncoprotein; NT647-labeled SET protein
T2 sequence (Q01105 other isoform, or with tags, fused parts or gaps): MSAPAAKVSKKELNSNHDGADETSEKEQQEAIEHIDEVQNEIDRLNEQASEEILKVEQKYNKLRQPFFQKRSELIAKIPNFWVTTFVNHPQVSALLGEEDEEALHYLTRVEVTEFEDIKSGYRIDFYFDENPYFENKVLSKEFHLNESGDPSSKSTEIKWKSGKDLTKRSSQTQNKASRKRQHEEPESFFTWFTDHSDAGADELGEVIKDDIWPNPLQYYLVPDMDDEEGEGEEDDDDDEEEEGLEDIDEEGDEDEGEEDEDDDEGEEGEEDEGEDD

T1 sequence (Q01105 1-277 isoform Q01105-2): as the sequence (Q01105 other isoform, or with tags, fused parts or gaps) above

Molecule: CO[C@H]1/C=C\C=C(/C)C(=O)NC2=CC(=O)C(NCCN(C)C)=C(C[C@@H](C)C[C@H](OC)[C@H](O)[C@@H](C)/C=C(\C)[C@@H]1OC(N)=O)C2=O [17-DMAG, reference compound]
expression level of BCR-ABL (BCR-ABL): significantly degraded

Molecule: Cc1ccc(NC(=O)c2cccc(CN3CCN(CC(=O)O)CC3)c2)cc1Oc1nccc(-c2cccnc2)n1 [TGI1002-COOH]
cytotoxicity compared to the parent compound TGI1002 (K562 cells): comparable cytotoxicity

Molecule: Cc1ccc(NC(=O)c2ccc(CN3CCN(C)CC3)cc2)cc1Nc1nccc(-c2cccnc2)n1 [imatinib, reference compound]
median survival (BaF3-p210^T315I cells; 10 mg/kg i.p. once daily from day 5): 25 days
Kd value [1]: did not bind SET to give a meaningful Kd value

Molecule: C=C1[C@@H](O)[C@@H]2O[C@]3(CC[C@H](/C=C/[C@@H](C)[C@@H]4CC(C)=C[C@@]5(O[C@H](C[C@@](C)(O)C(=O)O)CC[C@H]5O)O4)O3)CC[C@H]2O[C@@H]1[C@@H](O)C[C@H](C)[C@H]1O[C@@]2(CCCCO2)CC[C@H]1C [okadaic acid, reference compound]
PP2A activity compared to control (PP2A): decreased significantly

Molecule: Cc1ccc(C(=O)Nc2ccc(CN3CCN(C)CC3)c(C(F)(F)F)c2)cc1C#Cc1cnc2cccnn12 [ponatinib, reference compound]
median survival (BaF3-p210^T315I cells): 37 days
final tumor volume and weight compared to vehicle group [2]: markedly lower

Kd [3]: 4.4 ± 0.39 µM
B1: ApoE-mimetic peptide COG112 (peptide)
peptide: Ac-LRVRLASHLRKLRKRLL-NH2
notes: source: synthetic peptide (ChinaPeptides Co., Ltd, > 95% purity)
